Literature values as cited in patent publication US20220056154A1, “Bispecific Antibody Compositions and Methods for Treating COVID-19” (priority 2020, published 2022).

Biological target: hACE2 (Homo sapiens, UniProt Q9BYF1)
Conditions: 10 μM lisinopril, 10 μM captopril, 10 μM enalaprilat, 100 μM benzyl succinate, 10 mM EDTA; 100 μM angiotensin II; 37° C., 2 hours

Sequence of hACE2 (Q9BYF1 18-805): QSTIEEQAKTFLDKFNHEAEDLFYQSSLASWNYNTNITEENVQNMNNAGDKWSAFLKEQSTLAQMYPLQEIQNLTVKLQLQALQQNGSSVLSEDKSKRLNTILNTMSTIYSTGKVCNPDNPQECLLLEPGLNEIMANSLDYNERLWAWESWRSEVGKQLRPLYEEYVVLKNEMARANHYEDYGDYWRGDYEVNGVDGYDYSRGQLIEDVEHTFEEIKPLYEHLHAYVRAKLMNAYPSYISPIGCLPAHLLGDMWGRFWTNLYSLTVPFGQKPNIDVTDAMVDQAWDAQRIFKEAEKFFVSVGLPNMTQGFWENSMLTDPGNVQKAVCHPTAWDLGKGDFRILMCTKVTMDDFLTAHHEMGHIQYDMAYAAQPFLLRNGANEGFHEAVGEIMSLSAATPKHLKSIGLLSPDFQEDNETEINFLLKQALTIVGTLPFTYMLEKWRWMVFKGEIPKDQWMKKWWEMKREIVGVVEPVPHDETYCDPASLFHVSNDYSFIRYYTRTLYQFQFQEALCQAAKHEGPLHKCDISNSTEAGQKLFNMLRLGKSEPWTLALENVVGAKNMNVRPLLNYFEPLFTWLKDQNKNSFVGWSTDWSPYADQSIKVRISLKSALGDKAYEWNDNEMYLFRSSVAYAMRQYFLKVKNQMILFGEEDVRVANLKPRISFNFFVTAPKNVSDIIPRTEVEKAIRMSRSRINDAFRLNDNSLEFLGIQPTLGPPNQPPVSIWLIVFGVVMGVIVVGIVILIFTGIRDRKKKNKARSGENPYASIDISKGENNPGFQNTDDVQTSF

SMILES	inhibition of hACE2 activity (angiotensin II cleavage)
O=C(O)CN(CCN(CC(=O)O)CC(=O)O)CC(=O)O [EDTA]	inhibits hACE2 activity
O=C(O)CC(Cc1ccccc1)C(=O)O (centres unmarked) [benzyl succinate]	none of lisinopril, captopril, enalaprilat, and benzyl succinate (a carboxypeptidase A inhibitor) inhibits hACE2 activity
